Data on one substance can be found in paper PMC3816687, “Relationships between Cargo, Cell Penetrating Peptidesand Cell Type for Uptake of Non-Covalent Complexes into Live Cells” (Pharmaceuticals, 2013).

Data set [1] deals with HeLa cells. The conditions noted are these: non-covalent complexes, X-Gal staining; cited from earlier work. From the text:
HeLa cells: As shown in our preceding publication, the CPP cocktail JBS-Proteoducin can internalize enzymatic active β-galactosidase into all cell types investigated, including difficult to transfect Kasumi-1 cells. The active enzyme was transported not only into all types of cells but all of the observed cells are also positively stained using the β-galactosidase substrate 5-bromo-4-chloro-indolyl-β-D-galactopyranoside (X-Gal).

For data set [2], the system named is Leishmania tarentolae. Description: Internalization of β-galactosidase into Leishmania tarentolae, X-gal staining. In kind it is cell-based. To be noted: molar ratios 1:5, 1:10, 1:20 of cargo and CPP. As for the experimental part: (§1) A detailed description of formation of complexes with peptides and proteins is given in a previous publication. Briefly, cargo proteins (ATTO488-BSA, MW ≈ 68 kDa, β-galactosidase, MW ≈ 540 kDa) and the calculated volume of stock solution of CPPs or JBS-Proteoducin were dissolved separately in 100 µL of 1× PBS). Both solutions were thoroughly mixed by repeated pipetting. The mixture was incubated for 30 minutes at 37 °C to achieve complex formation. The molar ratio of cargo to CPPs was usually calculated to 1:10. For internalization of higher amounts of cargo, both the amount of protein and stock solution of CPP or cocktail, respectively, were multiplied. Complexes of the enzyme β-galactosidase and JBS-Proteoducin were formed from 1 µg β-galactosidase and 1 µL stock solution of JBS-Proteoducin under the described conditions.
For transduction cells in an early stage of development were used. To this end stock cultures were diluted 1:10 the day before the experiment into 10 mL of culture medium in 25 cm^2-ventilated tissue culture flasks and were incubated overnight in the dark at 26 °C for optimal proliferation. Cell suspensions with an OD of 1.2 (ca. 4 × 10^7 cells/mL) were used for transduction. The cells were thoroughly washed twice with PBS (5 mL each) by centrifugation (2,000 × g, 3 min). Pellets were resuspended in the original volume of PBS containing 0.1% BSA and aliquoted into 24-well plates. Four hundred µL of cell suspension were used per experiment. Two hundred µL of the complex solutions were added to these cells and mixtures were incubated for 1 h at 26 °C in the dark with gentle agitation. Successively, 1 mL of complete growth medium (LEXSY BHI) was added per sample and incubation was continued at 26 °C for 2 h. Cells were washed twice with PBS (2 mL each) by centrifugation (2,000 × g, 3 min) prior to analysis of transduction.
(§2) Staining of the cells took place in multiwell-plates. Jurkat and Leishmania cells were stained according to the instructions described in [24], using a staining solution containing potassium ferrocyanide, potassium ferricyanide and X-gal. Leishmania cells were stained after finishing the above described transduction protocol. For Jurkat cells the staining was performed after transferring cells from spinning tubes used in the last washing step to 24-well plates. Cells were incubated in staining solution overnight and directly observed in a microscope using a 400-fold magnification.

Data set [3] relates to most of the cells investigated. The experiment in a line: Proteolytic stability of CPPs compared over the cells investigated. To be noted: incubation with intact cells up to 60 min, PBS, 37 °C, HPLC. Type of data set: in vitro ADME. As for the experimental part: (§3) In a 6-well-plate with 0.3 × 10^6 cells per well the different cell types were cultivated overnight under optimized conditions. Then medium was removed by aspiration (adherent cell) or centrifugation (suspension cells) and washed cells were incubated with CPPs in phosphate buffer solution (PBS). Incubation was performed under the same conditions as the transduction of complexes with the cargo for 1 h at 37 °C in a humidified atmosphere containing 5% CO2. After 15, 30, 45 and 60 min samples of 200 µL were taken and the proteolytic reaction was stopped by addition of 50 µL 37 perc. HCl. After freezing and lyophilization samples were analyzed by analytical high performance liquid chromatography (HPLC), using a RP18 column (Vydac 218TP). In case of MPGβ, for elution a gradient was used from 10% acetonitrile and 90% water, both containing 0.1% trifluoroacetic acid to 60% acetonitrile and 40% water in 50 min. […] The flow rate was 1.0 ml/min and detection was performed at 220 nm.

For data set [4], the system named is Leishmania tarentolae. Description: Cytotoxicity test for Leishmania tarentolae (morphology and motility). Type of data set: cell-based. Here is the method:
Leishmania cells were cultivated as described previously, resuspended in PBS and treated with increasing concentrations of cocktails and CPPs for 1 h. Cytotoxic effects were monitored by changes in morphology and motility observed using a microscope at 400-fold magnification.

For data set [5], the system named is HeLa cells. The conditions noted are these: non-covalent complexes; cited from earlier work. Here is the method: Table 4 Intracellular amounts and concentrations. Internalized amounts are calculated from fluorescence intensities in the homogenate directly or after separation by SDS-PAGE. In the case of nucleoside triphosphates quantification was performed by fluorescence spectrometry. Estimation of cell volumes allows the calculation of intracellular concentrations. […] The rank order for the uptake of β-galactosidase into HeLa cells: JBS-Proteoducin > MPGα ≥ MPGβ > CAD-2 >> CPPP-2 // HIV-TAT = penetratin provides evidence for different requirements of enzyme and nucleotide for co ...

A further data set concerns Jurkat cells. The experiment in a line: Internalization of β-galactosidase into Jurkat cells, X-gal staining. Type of data set: cell-based, Human. To be noted: complexes of β-galactosidase and CPP, ratio 1:10, X-Gal staining. Here is the method: as §1
The thoroughly washed cell pellet was suspended in 200 µL of complex solution followed by 400 µL of serum free medium, gently mixed and transferred into 24-well plates. […] After addition of 1.4 mL of complete culture medium incubation was continued at 37 °C for approx. 2 h in a humidified atmosphere containing 5% CO2. The cells were washed by spinning down twice with PBS, three times with glycine buffer (pH 3.0) and twice with PBS.
as §2

Data set [6] relates to NB-4 cells. The experiment in a line: Membrane integrity, CytoTox-Glo assay, NB-4 cells. In kind it is cell-based, Human. To be noted: low concentrations (9.4 µM), 1 h at 37 °C in serum-free medium, triplicates. As for the experimental part: (§4) Cells were cultured under standard conditions and treated in serum-free medium for 1 h at 37 °C with different CPPs and the cocktail. After removal of CPPs and repeated washings the membrane integrity of the cells was estimated by the bioluminescence test CytoTox-Glo measuring the release of a cytosolic dead-cell protease. The CytoTox-Glo assay was performed according to the supplier’s instructions and adapted to 96-well plates. Bioluminescence was estimated by a luminescence plate reader. Each value was measured in triplicates with an SD of ± 1.2.

The test system of another data set is COS-7 cells. The experiment in a line: Degradation of CPPs by secreted and surface bound proteases of COS-7 cells. To be noted: 60 min incubation with 0.3 × 10^6 intact cells per well, PBS, 37 °C, 5% CO2, RP18 HPLC, 220 nm. Here is the method:
as §3

For a further data set, the system named is different cell lines. Description: Membrane integrity, CytoTox-Glo assay, different cell lines. The conditions noted are these: up to 141 µM, 1 h at 37 °C in serum-free medium, triplicates. In kind it is cell-based. Here is the method: as §4
The test system of data set [7] is HeLa cells. Description: Membrane integrity, CytoTox-Glo assay, HeLa cells. In kind it is cell-based, Human. The conditions noted are these: low concentrations (9.4 µM), 1 h at 37 °C in serum-free medium, triplicates. Here is the method: as §4
Data set [8] deals with Leishmania tarentolae. The conditions noted are these: non-covalent complexes; cited from earlier work. From the text: Formation of non-covalent complexes between cargo and CPP occurs by optimized interaction of the CPP with the surface of the cargo. These complexes are stabilized by ionic, polar, π-electron-cation, or hydrophobic interactions, hydrogen bonds and common interactions between molecules. Thus, for the same cell type different cargoes show different rank orders for CPPs.

In data set [9] the test system is NB-4 cells. Description: Degradation of CPPs by proteases of NB-4 cells. Type of data set: in vitro ADME, Human. To be noted: 60 min incubation with 0.3 × 10^6 intact cells per well, PBS, 37 °C, 5% CO2, RP18 HPLC, 220 nm. As for the experimental part:
as §3

“Also recorded” adds a separate entry of the source.

For the substance “GLWRALWRLLRSLWRLLWKA-NH-CH2-CH2-SH [CAD-2, des-acetyl, Lys^19-CADY, cell penetrating peptide, 6 positive charges]”, the “rank order for internalization of β-galactosidase into HeLa cells” value in the data set with HeLa cells [1] is recorded as “JBS-Proteoducin > MPGα ≥ MPGβ > CAD-2 >> CPPP-2 // HIV-TAT, penetratin”. Besides, the “rank order for uptake efficiency of β-galactosidase into Leishmania tarentolae” value in the data set with Leishmania tarentolae [2] is listed as “CAD-2 > MPGα > Histone > MPGβ >> penetratin ≥ HIV-TAT ≥ CPPP-2”. Besides, the “relative proteolytic stability among the CPPs” value in data set [3] is on record as “nearly unaffected; also recorded: most stable”. The “Cytotoxicity in Leishmania tarentolae” value in the data set on Leishmania tarentolae [4] is at most 25 µM. The “rank order of uptake efficiency of ATTO488-dUTP into HeLa cells” value in the data set on HeLa cells [5] was “JBS-Nucleoducin > CAD-2 > MPGα ≥ MPGβ > penetratin >> CPP-2”. Moreover, the “rank order for internalization of β-galactosidase into Jurkat cells” value with Jurkat cells is reported as “JBS-Proteoducin > MPGβ > MPGα > CAD-2 >> CPPP-2”. Also, in the data set on NB-4 cells [6], the “membrane integrity of NB-4 cells (release of dead-cell protease)” value was “sensitive”. The “stability against proteolytic cleavage by COS-7 cells (HPLC peak)” value in the data set on COS-7 cells was “remains stable”. In the data set on different cell lines, the “reduction of membrane integrity with increasing concentrations” value is on record as “very low”. Also, the “membrane integrity of HeLa cells (release of dead-cell protease)” value with HeLa cells [7] is “sensitive”. Further, in the data set on Leishmania tarentolae [8], the “rank order for transport of ATTO488-labeled BSA into Leishmania” value was “MPGα >> CAD-2 > histone”. Also, the “stability against proteolytic cleavage by NB-4 cells (HPLC peak)” value in the data set on NB-4 cells [9] is listed as “remains stable”.
